# Test results reported in patent US20050203065A1, “Method of treating ischemia reperfusion injury using adenosine receptor antagonists” (priority 2002, published 2005).
# How the values were obtained:
# [1] = biological target: T1, recombinant human A3 adenosine receptors (Homo sapiens, UniProt P0DMS8); experiment: Radioligand binding, human A3 receptor ([125I]-AB-MECA), incl. one-point binding at 10 μM; settings: read-out: Percent (%) Inhibition at 10 μM Antagonist, A3
# T1 construct: expressed in transfected cells; host or cells: HEK 293
# T1 sequence (P0DMS8 1-318): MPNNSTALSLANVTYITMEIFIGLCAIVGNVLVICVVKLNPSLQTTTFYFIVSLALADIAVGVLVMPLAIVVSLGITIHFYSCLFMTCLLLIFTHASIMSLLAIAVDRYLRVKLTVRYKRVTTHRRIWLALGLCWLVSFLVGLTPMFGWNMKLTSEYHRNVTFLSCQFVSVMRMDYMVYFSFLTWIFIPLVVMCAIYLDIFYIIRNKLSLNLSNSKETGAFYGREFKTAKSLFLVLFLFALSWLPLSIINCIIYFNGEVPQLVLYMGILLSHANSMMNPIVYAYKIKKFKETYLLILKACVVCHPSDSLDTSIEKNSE
# [2] = system: open-chest, barbital-anesthetized dogs; experiment: Protocol II (preconditioning): four 5-minute occlusion/reperfusion cycles before 60-minute occlusion and 3 hours reperfusion in dogs; type: in vivo, dog
# Experimental: Preconditioning was elicited by four 5-minute occlusion/5-minute reperfusion cycles produced 10 minutes before the 60-minute occlusion.
# [3] = system: open-chest, barbital-anesthetized dogs; experiment: Protocol III (reperfusion): 60 minutes occlusion and 3 hours reperfusion, drug from 10 minutes before release of occlusion, dogs; type: in vivo, dog
# Experimental: The studies were performed in open-chest, barbital-anesthetized dogs instrumented to measure heart rate, blood pressure, left ventricular pressure, and regional myocardial blood flow (radioactive microspheres). A mechanical occluder was placed around a proximal portion of the left anterior descending coronary artery to produce ischemia and reperfusion. At the end of the experiments, infarct size was determined-by histochemical staining (patent blue dye and triphenyltetrazolium) and expressed as a percentage of the region at risk or as a percentage of the entire left ventricle.
# In the reperfusion protocol (see FIG. 3, protocol III), the dogs were subjected to 60 minutes of coronary artery occlusion followed by three hours of reperfusion. […] The antagonists were administered at a dose of 1 mg/kg i.v. bolus followed by an infusion of 10 μg/kg/min for one hour.
# [4] = biological target: T2, recombinant canine A2a adenosine receptors (Canis lupus familiaris, UniProt P11617); experiment: Radioligand competition binding, canine A2a receptor (3H-ZM 241385), transfected HEK 293 membranes; settings: canine; mean ± SEM, n = 3; 3H-ZM 241385; read-out: Ki, A2a
# T2 construct: expressed in transfected cells
# Experimental: Membranes (40-70 μg membrane protein), radioligands, and varying concentrations of competing ligands were incubated in triplicate in 0.1 ml buffer HE plus 2 units/mL adenosine deaminase for 2.5 hours at 21° C. […] Nonspecific binding was measured in the presence of 10 μM 5′N ethylcarboxamidoadenosine (NECA, from RBI-Sigma, Natick, Mass.) for A1 and A2b receptors, or 10 μM xanthine amino congener (XAC, from RBI-Sigma, Natick, Mass.) for A2a receptors. Binding assays were terminated by filtration over Whatman GF/C glass fiber filters using a BRANDEL cell harvester (Gaithersburg, Md.).
# [5] = biological target: T3, recombinant canine A3 adenosine receptors (Canis lupus familiaris, UniProt Q28309); experiment: Radioligand competition binding, canine A3 receptor (R-PIA), transfected HEK 293 membranes; settings: mean ± SEM, n = 3
# T3 construct: expressed in transfected cells
# T3 sequence (Q28309 1-314): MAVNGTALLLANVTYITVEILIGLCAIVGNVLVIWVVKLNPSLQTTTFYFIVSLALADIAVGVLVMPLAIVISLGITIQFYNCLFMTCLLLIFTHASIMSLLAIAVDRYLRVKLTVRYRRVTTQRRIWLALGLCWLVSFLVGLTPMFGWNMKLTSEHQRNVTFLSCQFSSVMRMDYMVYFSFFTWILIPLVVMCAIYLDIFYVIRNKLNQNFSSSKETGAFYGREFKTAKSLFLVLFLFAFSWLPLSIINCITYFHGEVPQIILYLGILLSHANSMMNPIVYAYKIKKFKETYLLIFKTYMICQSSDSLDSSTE
# Experimental: Membranes (40-70 μg membrane protein), radioligands, and varying concentrations of competing ligands were incubated in triplicate in 0.1 ml buffer HE plus 2 units/mL adenosine deaminase for 2.5 hours at 21° C. The radioligands used for competitive binding assays were: [^3H]-8-cyclopentyl-1,3-dipropyxanthine ([^3H]-DPCPX) (NEN, Boston, Mass.) for A1 and A2b adenosine receptors, [^3H]-4-(2-[7-amino-2-(furyl)(1,2,4)triazole(2,3-a)(1,3,5)triazin-5-ylaminoethyly)phenol ([^3H] ZM241385) for A2a adenosine receptors (Tocris, Bristol, UK), and [^125Iodine]-labeled N6-(4-aminobenzyl)-9-(5-(methylcarbonyl)-β-D-ribofuranosyl) adenine ([^125I]-AB-MECA) or [^3H]-R-N^6-phenylisopropyladenosine (H^3R]-R-PIA) for A3 adenosine receptors (both from NEN, Boston, Mass.). Nonspecific binding was measured in the presence of 10 μM 5′N ethylcarboxamidoadenosine (NECA, from RBI-Sigma, Natick, Mass.) for A1 and A2b receptors, or 10 μM xanthine amino congener (XAC, from RBI-Sigma, Natick, Mass.) for A2a receptors. Binding assays were terminated by filtration over Whatman GF/C glass fiber filters using a BRANDEL cell harvester (Gaithersburg, Md.). The-filters were rinsed three times with 3-4 mL ice-cold 10 mM Tris-HCl, pH 7.4 and 5 mM magnesium chloride (MgCl2) at 4° C., and were counted in a Wallac β-counter (Perkin Elmer, Boston, Mass.).
# [6] = biological target: T4, human A2B adenosine receptors (Homo sapiens, UniProt P29275); experiment: FLIPR calcium functional assay, human A2b receptor in HEK-293 cells (5 μM NECA); type: cell-based; design: expressed in transfected cells; host or cells: HEK-293; settings: HEK293 cells, null method
# T4 sequence (P29275 1-332): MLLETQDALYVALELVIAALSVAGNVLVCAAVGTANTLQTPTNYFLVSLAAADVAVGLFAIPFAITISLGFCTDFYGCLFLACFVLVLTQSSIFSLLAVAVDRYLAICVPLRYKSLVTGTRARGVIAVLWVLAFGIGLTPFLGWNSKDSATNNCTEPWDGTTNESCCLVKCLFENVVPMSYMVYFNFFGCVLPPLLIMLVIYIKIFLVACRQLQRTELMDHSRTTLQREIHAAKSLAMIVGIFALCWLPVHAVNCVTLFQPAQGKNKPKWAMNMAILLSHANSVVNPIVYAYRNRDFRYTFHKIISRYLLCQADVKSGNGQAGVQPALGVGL
# Experimental: Cells were seeded into 96-well tissue culture plates with black walls and clear bottoms, and cultured to an 80-0.90% confluent monolayer. Without removing the media, an equal volume of dye (from calcium assay kit purchased from Molecular Devices) was added. Cell plates were incubated for 1 hour at 37° C. and were then transferred to the-FLIPR unit (Molecular Devices).
# For assay of recombinant human and rat A2b adenosine receptors, HEK-293 cells were incubated with increasing doses of agonist (5′N-ethylcarboxamidoadenosine, NECA) to determine the concentration of agonst that produced 50% of a maximum response.
# The FLIPR integrates an argon laser excitation source, a 96-well pipettor, and a detection system utilizing a CCD (Charged Coupled Device) imaging camera. […] Fluorescence data were collected at 0.1-sec intervals before and after simultaneous rapid addition of compounds to the 96-well plate. Results were read as relative fluorescence units (RFU).
# In FLIPR functional assays, agonist concentration-response curves were fitted to a logistic equation by use of the nonlinear regression program in Prizm GraphPad. […] A Schild analysis was performed to estimate the potency of the compounds as antagonists (pA2). […]
# T2 sequence (P11617 whole entry): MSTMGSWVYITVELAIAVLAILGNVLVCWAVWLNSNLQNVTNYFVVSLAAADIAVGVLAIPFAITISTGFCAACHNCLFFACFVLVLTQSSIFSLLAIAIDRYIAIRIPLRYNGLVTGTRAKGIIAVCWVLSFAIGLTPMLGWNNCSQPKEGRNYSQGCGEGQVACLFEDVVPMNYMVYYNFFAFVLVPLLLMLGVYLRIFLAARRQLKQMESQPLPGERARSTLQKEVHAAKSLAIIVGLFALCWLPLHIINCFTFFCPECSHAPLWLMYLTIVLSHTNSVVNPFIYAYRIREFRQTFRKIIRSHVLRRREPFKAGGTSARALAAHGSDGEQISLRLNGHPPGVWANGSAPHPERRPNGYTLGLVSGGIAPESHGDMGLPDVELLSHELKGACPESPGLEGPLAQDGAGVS
compound,measurement,setting,value
"CCCn1c(=O)c2[nH]c(C34CCC(CCC(=O)O)(CC3)CC4)nc2n(CCC)c1=O [BG 9928, 3-[4-(2,6-dioxo-1,3-dipropyl-2,3,6,7-tetrahydro-1H-purin-8-yl)-bicyclo[2.2.2]oct-1-yl]-propionic acid]",inhibition at 10 µM,[1],30%
same,Addition to the protective effect of ischemic preconditioning,[2]; Protocol II,added to the protective effect
same,Relationship between infarct size and collateral blood flow compared to preconditioned control,[2]; Protocol II (preconditioning),shifted downward further
same,Effect on the protective effects of ischemic preconditioning,"[2]; Protocol II, 1 mg/kg i.v. bolus + 10 μg/kg/min",did not block
same,"Infarct size expressed as a percentage of the entire left ventricle, in words",[3],a significant reduction in infarct size was not observed
same,Relationship between infarct size and collateral blood flow compared to control group,[3],shifted downward
same,Reduction in infarct size (percentage of the risk region),[3]; 1 mg/kg i.v. bolus + 10 μg/kg/min for one hour from 10 minutes before release of occlusion,44%
same,"Infarct size expressed as a percentage of the risk region, in words",[3]; administration during the early phase of reperfusion,reduced significantly
same,Ki,[4],4.31 µM
same,Ki,[5],37.7 µM
same,Kb,[6],0.00336 µM
